In PubChem BioAssay AID298 (DTP/NCI, 2004):
Where “and” joins values, the source holds several entries; their conditions need not be identical. Identical values can stand only once. Records with an inconclusive call do not appear.

Test system: MX-1 breast xenograft, intrarenal, nude mice, tumor weight
Test: NCI In Vivo Anticancer Drug Screen. Data for tumor model Human Mammary Carcinoma MX-1 Xenograft (intrarenal inoculation) in NU/NU BALB/C (nude) mice
Conditions: endpoint: mean tumor weight change, higher = larger tumour
Summary of the method: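 T/C readout: treated-group measurement over vehicle-control measurement, using tumor size or survival in tumor-bearing mice.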

[1] = dose: 150.0 mg/kg/injection, schedule: Q04DX003 (sc), vehicle: saline with Tween-80
[2] = dose: 300.0 mg/kg/injection, schedule: Q04DX003 (sc), vehicle: saline with Tween-80
[3] = dose: 50.0 mg/kg/injection, schedule: Q04DX003 (ip), vehicle: saline

CC(=O)Nc1cscc1NC(C)=O
T/C [1]: 198 % of control | T/C [2]: 59 % of control | T/C (dose: 1200.0 mg/kg/injection, schedule: Q04DX003 (sc), vehicle: saline with Tween-80): 106 % of control

O=C(O)CC(NC(=O)CP(=O)(O)O)C(=O)O (stereo unspecified)
T/C (dose: 50.0 mg/kg/injection, schedule: Q01DX010 (sc), vehicle: saline): 36 % of control | T/C (dose: 100.0 mg/kg/injection, schedule: Q01DX010 (sc), vehicle: saline): 16 % of control | T/C (dose: 200.0 mg/kg/injection, schedule: Q01DX010 (sc), vehicle: saline): 5 % of control

CCN(CC)CCC(=O)OC(C(=O)O[C@H]1C[C@@]2(O)C(OC(=O)c3ccccc3)C3C4(OC(C)=O)COC4C[C@H](O)[C@@]3(C)C(=O)[C@H](OC(C)=O)C(=C1C)C2(C)C)C(NC(=O)c1ccccc1)c1ccccc1 (stereo partly specified)
T/C (dose: 4.5 mg/kg/injection, schedule: Q01DX009 (ip), vehicle: water): -100 % of control | T/C (dose: 9.0 mg/kg/injection, schedule: Q01DX009 (ip), vehicle: water): -100 % of control | T/C (dose: 18.0 mg/kg/injection, schedule: Q01DX009 (ip), vehicle: water): -100 % of control

O=C1C=C2C(=CCOC2O)O1 (stereo unspecified)
T/C (dose: 1.0 mg/kg/injection, schedule: Q04DX003 (sc), vehicle: Klucel (hydroxypropylcellulose) (HPC)): 87 % of control | T/C (dose: 2.0 mg/kg/injection, schedule: Q04DX003 (sc), vehicle: Klucel (hydroxypropylcellulose) (HPC)): 79 % of control | T/C (dose: 4.0 mg/kg/injection, schedule: Q04DX003 (sc), vehicle: Klucel (hydroxypropylcellulose) (HPC)): 59 % of control

CCC(=O)N(C)[C@@H](C)C(=O)O[C@H]1CC(=O)N(C)c2cc(cc(OC)c2Cl)C/C(C)=C/C=C[C@@H](OC)[C@@]2(O)C[C@H](OC(=O)N2)[C@@H](C)[C@@H]2O[C@@]12C
T/C (dose: 0.12 mg/kg/injection, schedule: Q04DX003 (sc), vehicle: saline + alcohol): 100 % of control | T/C (dose: 0.25 mg/kg/injection, schedule: Q04DX003 (sc), vehicle: saline + alcohol): 48 % of control | T/C (dose: 0.5 mg/kg/injection, schedule: Q04DX003 (sc), vehicle: saline + alcohol): 5 % of control | T/C (dose: 7.5 micrograms/kg/injection, schedule: Q04DX004 (ip), vehicle: saline + alcohol): 115 % of control | T/C (dose: 15.0 micrograms/kg/injection, schedule: Q04DX004 (ip), vehicle: saline + alcohol): 67 % of control

Nc1ncn(C2OC(CO)C(O)C2O)c(=O)n1 (stereo unspecified)
T/C (dose: 0.19 mg/kg/injection, schedule: Q01DX010 (ip), vehicle: saline): 307 % of control | T/C (dose: 0.19 mg/kg/injection, schedule: Q01DX010 (sc), vehicle: saline): 83 % of control | T/C (dose: 0.38 mg/kg/injection, schedule: Q01DX010 (ip), vehicle: saline): 261 % of control | T/C (dose: 0.63 mg/kg/injection, schedule: Q04DX003 (ip), vehicle: saline): 73 % of control | T/C (dose: 0.63 mg/kg/injection, schedule: Q04DX003 (sc), vehicle: saline): 22 % of control | T/C (dose: 0.75 mg/kg/injection, schedule: Q01DX010 (ip), vehicle: saline): 86 % of control | T/C (dose: 0.75 mg/kg/injection, schedule: Q01DX010 (sc), vehicle: saline): 69 % of control | T/C (dose: 1.25 mg/kg/injection, schedule: Q04DX003 (ip), vehicle: saline): 91 % of control | T/C (dose: 1.25 mg/kg/injection, schedule: Q04DX003 (sc), vehicle: saline): 40 % of control | T/C (dose: 1.5 mg/kg/injection, schedule: Q01DX010 (ip), vehicle: saline): 249 % of control | T/C (dose: 2.5 mg/kg/injection, schedule: Q04DX003 (ip), vehicle: saline): 94 % of control | T/C (dose: 2.5 mg/kg/injection, schedule: Q04DX003 (sc), vehicle: saline): 36 % of control | T/C (dose: 5.0 mg/kg/injection, schedule: Q04DX003 (ip), vehicle: saline): 31 % of control | T/C (dose: 10.0 mg/kg/injection, schedule: Q04DX003 (sc), vehicle: saline): 23 % of control | T/C (dose: 100.0 mg/kg/injection, schedule: Q04DX003 (sc), vehicle: saline): 15 % of control | T/C (dose: 150.0 mg/kg/injection, schedule: Q04DX003 (sc), vehicle: saline): 21 % of control | T/C (dose: 200.0 mg/kg/injection, schedule: Q04DX003 (sc), vehicle: saline): 15 % of control | T/C (dose: 300.0 mg/kg/injection, schedule: Q04DX003 (sc), vehicle: saline): 8 % of control | T/C (dose: 400.0 mg/kg/injection, schedule: Q04DX003 (sc), vehicle: saline): 4 % of control | T/C (dose: 600.0 mg/kg/injection, schedule: Q04DX003 (sc), vehicle: saline): -45 % of control | T/C (dose: 800.0 mg/kg/injection, schedule: Q04DX003 (sc), vehicle: saline): -50 % of control | T/C (dose: 1200.0 mg/kg/injection, schedule: Q04DX003 (sc), vehicle: saline): -43 % of control

COc1cccc2c1C(CO)N1C(C#N)C3CC(C(=O)O)C(C1C2)N3C (stereo unspecified)
T/C (dose: 3.75 mg/kg/injection, schedule: Q04DX003 (ip), vehicle: saline): 31 % of control | T/C (dose: 6.25 mg/kg/injection, schedule: Q01DX010 (ip), vehicle: saline): -61 % of control | T/C (dose: 6.25 mg/kg/injection, schedule: Q04DX003 (ip), vehicle: saline): 9 % of control | T/C (dose: 6.25 mg/kg/injection, schedule: Q04DX003 (ip), vehicle: suspension in saline): 10 % of control | T/C (dose: 7.5 mg/kg/injection, schedule: Q04DX003 (ip), vehicle: saline): 40 % of control | T/C (dose: 12.5 mg/kg/injection, schedule: Q01DX010 (ip), vehicle: saline): -100 % of control | T/C (dose: 12.5 mg/kg/injection, schedule: Q04DX003 (ip), vehicle: saline): 17 % of control | T/C (dose: 12.5 mg/kg/injection, schedule: Q04DX003 (ip), vehicle: suspension in saline): 6 % of control | T/C (dose: 15.0 mg/kg/injection, schedule: Q04DX003 (ip), vehicle: saline): 38 % of control | T/C (dose: 25.0 mg/kg/injection, schedule: Q01DX010 (ip), vehicle: saline): -99 % of control | T/C (dose: 25.0 mg/kg/injection, schedule: Q04DX003 (ip), vehicle: saline): 14 % of control | T/C (dose: 25.0 mg/kg/injection, schedule: Q04DX003 (ip), vehicle: suspension in saline): -48 % of control | T/C (dose: 30.0 mg/kg/injection, schedule: Q04DX003 (ip), vehicle: saline): 58 % of control | T/C [3]: 2 % of control | T/C (dose: 50.0 mg/kg/injection, schedule: Q04DX003 (ip), vehicle: suspension in saline): -79 % of control | T/C (dose: 60.0 mg/kg/injection, schedule: Q04DX003 (ip), vehicle: saline): 13 % of control

COc1ccc(C=C(C(=O)CCN(C)C)C(=O)CCN(C)C)cc1
T/C [3]: 93 % of control | T/C (dose: 100.0 mg/kg/injection, schedule: Q04DX003 (ip), vehicle: saline): 101 % of control | T/C (dose: 200.0 mg/kg/injection, schedule: Q04DX003 (ip), vehicle: saline): 96 % of control

CN(C)c1nc(N(C)C)nc(N(C)C)n1
T/C (dose: 12.5 mg/kg/injection, schedule: Q01DX010 (sc), vehicle: saline with Tween-80): 102 % of control | T/C (dose: 15.0 mg/kg/injection, schedule: Q01DX010 (sc), vehicle: saline with Tween-80): 84 % of control | T/C (dose: 25.0 mg/kg/injection, schedule: Q01DX010 (ip), vehicle: Klucel (hydroxypropylcellulose) (HPC)): 36 % of control | T/C (dose: 25.0 mg/kg/injection, schedule: Q01DX010 (sc), vehicle: saline with Tween-80): 56 % of control | T/C (dose: 30.0 mg/kg/injection, schedule: Q01DX010 (sc), vehicle: saline with Tween-80): 3 % of control | T/C (dose: 50.0 mg/kg/injection, schedule: Q01DX010 (sc), vehicle: saline with Tween-80): 7 % of control | T/C (dose: 60.0 mg/kg/injection, schedule: Q01DX010 (sc), vehicle: saline with Tween-80): -30 % of control | T/C (dose: 75.0 mg/kg/injection, schedule: Q04DX003 (sc), vehicle: saline with Tween-80): 37 % of control | T/C (dose: 100.0 mg/kg/injection, schedule: Q01DX010 (ip), vehicle: Klucel (hydroxypropylcellulose) (HPC)): -100 % of control | T/C (dose: 100.0 mg/kg/injection, schedule: Q01DX010 (sc), vehicle: saline with Tween-80): 9 % of control | T/C (dose: 120.0 mg/kg/injection, schedule: Q01DX010 (sc), vehicle: saline with Tween-80): -90 % of control | T/C [1]: 16 % of control | T/C (dose: 200.0 mg/kg/injection, schedule: Q01DX010 (ip), vehicle: Klucel (hydroxypropylcellulose) (HPC)): -100 % of control | T/C (dose: 200.0 mg/kg/injection, schedule: Q01DX010 (sc), vehicle: saline with Tween-80): -5 % of control | T/C [2]: -60 % of control

C=C1C(O)C2OC3(CCC(/C=C/C(C)C4CC5(C)SC5C5(OC(CC(C)(O)C(=O)O)CCC5O)O4)O3)CCC2OC1C(O)CC(C)C1OC2(CCCCO2)CCC1C (stereo unspecified)
T/C (dose: 5.0 micrograms/kg/injection, schedule: Q04DX003 (ip), vehicle: saline + alcohol): 92 % of control | T/C (dose: 10.0 micrograms/kg/injection, schedule: Q04DX003 (ip), vehicle: saline + alcohol): 84 % of control | T/C (dose: 40.0 micrograms/kg/injection, schedule: Q04DX003 (ip), vehicle: saline + alcohol): 56 % of control and 76 % of control
